{"source": "patent US20260070906A1", "about": "“IMIDAZO[4,5-C]PYRIDINE COMPOUNDS FOR THE TREATMENT OF CANCER” (Hoffmann-La Roche Inc., priority 2023, published 2026)", "key": {"human TLR8": {"biological_target": "T1, human TLR8 (Homo sapiens, UniProt Q9NR97)", "T1 construct": "host or cells: HEK293-Blue-hTLR8 (HEK293)", "T1 sequence (Q9NR97 27-1041)": "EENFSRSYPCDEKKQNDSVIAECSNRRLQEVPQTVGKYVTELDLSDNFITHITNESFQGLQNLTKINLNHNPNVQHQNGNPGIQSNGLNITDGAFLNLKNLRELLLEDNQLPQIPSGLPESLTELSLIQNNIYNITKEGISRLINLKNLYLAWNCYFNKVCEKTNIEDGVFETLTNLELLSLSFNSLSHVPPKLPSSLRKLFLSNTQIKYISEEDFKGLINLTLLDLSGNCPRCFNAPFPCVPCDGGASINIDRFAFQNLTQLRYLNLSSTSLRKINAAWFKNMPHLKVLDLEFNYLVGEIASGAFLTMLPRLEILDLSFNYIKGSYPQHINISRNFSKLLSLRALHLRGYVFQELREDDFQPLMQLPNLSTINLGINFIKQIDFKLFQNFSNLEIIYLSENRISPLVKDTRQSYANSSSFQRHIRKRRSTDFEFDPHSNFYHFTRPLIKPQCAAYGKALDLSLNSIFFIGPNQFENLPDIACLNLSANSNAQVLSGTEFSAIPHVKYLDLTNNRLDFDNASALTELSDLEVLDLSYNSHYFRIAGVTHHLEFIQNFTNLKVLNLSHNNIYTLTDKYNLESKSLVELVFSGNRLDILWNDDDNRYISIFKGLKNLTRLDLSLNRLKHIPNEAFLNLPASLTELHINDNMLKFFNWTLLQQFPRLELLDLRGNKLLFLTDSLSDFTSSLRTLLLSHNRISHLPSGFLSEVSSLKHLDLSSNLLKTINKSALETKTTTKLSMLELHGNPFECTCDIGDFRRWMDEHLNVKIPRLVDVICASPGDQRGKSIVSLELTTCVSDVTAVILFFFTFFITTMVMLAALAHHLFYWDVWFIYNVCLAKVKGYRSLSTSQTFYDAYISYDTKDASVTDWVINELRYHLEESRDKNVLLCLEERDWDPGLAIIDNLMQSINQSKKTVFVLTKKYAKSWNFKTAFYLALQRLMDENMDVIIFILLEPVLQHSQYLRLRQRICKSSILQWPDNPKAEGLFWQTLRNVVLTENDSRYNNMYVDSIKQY", "experiment": "HEK293-Blue-hTLR8 cells assay (NF-κB SEAP reporter)", "type": "cell-based", "details": "20 hours incubation, agonism", "source_text": "A stable HEK293-Blue-hTLR8 cell line was purchased from InvivoGen (Cat. #: hkb-htlr8, San Diego, California, USA). These cells were designed for studying the stimulation of human TLR8 by monitoring the activation of NF-κB. A SEAP (secreted embryonic alkaline phosphatase) reporter gene was placed under the control of the IFN-β minimal promoter fused to five NF-κB and AP-1-binding sites. The SEAP was induced by activating NF-κB and AP-1 via stimulating HEK-Blue hTLR8 cells with TLR8 ligands. Therefore the reporter expression was regulated by the NF-κB promoter upon stimulation of human TLR8. The cell culture supernatant SEAP reporter activity was determined using QUANTI-Blue™ kit (Cat. #: rep-qbl, Invivogen, San Diego, Ca, USA) at a wavelength of 650 nm, a detection medium that turns purple to blue in the presence of alkaline phosphatase.\nHEK293-Blue-hTLR8 cells were incubated at a density of 250,000-450,000 cells/mL in a volume of 180 μL in a 96-well plate in Dulbecco's Modified Eagle's medium (DMEM) containing 4.5 g/L glucose, 100 U/mL penicillin, 100 μg/mL streptomycin, 100 μg/mL Normocin, 1% (V/V) GlutaMAX™, 10% (v/v) heat-inactivated fetal bovine serum for 24 hours. Then the HEK293-Blue-hTLR8 cells were incubated with addition of 20 μL test compound in a serial dilution in the presence of final DMSO at 1% and perform incubation under 37° C. in a CO2 incubator for 20 hours. Then 20 μL of the supernatant from each well was incubated with 180 μL Quanti-blue substrate solution at 37° C. for 1 hours and the absorbance was read at 620-655 nm using a spectrophotometer. The signalling pathway that TLR8 activation leads to downstream NF-κB activation has been widely accepted, and therefore similar reporter assay was also widely used for evaluating TLR8 agonist."}, "human TLR7": {"biological_target": "T2, human TLR7 (Homo sapiens, UniProt Q9NYK1)", "T2 construct": "host or cells: HEK293-Blue-hTLR7 (HEK293)", "T2 sequence (Q9NYK1 27-1049)": "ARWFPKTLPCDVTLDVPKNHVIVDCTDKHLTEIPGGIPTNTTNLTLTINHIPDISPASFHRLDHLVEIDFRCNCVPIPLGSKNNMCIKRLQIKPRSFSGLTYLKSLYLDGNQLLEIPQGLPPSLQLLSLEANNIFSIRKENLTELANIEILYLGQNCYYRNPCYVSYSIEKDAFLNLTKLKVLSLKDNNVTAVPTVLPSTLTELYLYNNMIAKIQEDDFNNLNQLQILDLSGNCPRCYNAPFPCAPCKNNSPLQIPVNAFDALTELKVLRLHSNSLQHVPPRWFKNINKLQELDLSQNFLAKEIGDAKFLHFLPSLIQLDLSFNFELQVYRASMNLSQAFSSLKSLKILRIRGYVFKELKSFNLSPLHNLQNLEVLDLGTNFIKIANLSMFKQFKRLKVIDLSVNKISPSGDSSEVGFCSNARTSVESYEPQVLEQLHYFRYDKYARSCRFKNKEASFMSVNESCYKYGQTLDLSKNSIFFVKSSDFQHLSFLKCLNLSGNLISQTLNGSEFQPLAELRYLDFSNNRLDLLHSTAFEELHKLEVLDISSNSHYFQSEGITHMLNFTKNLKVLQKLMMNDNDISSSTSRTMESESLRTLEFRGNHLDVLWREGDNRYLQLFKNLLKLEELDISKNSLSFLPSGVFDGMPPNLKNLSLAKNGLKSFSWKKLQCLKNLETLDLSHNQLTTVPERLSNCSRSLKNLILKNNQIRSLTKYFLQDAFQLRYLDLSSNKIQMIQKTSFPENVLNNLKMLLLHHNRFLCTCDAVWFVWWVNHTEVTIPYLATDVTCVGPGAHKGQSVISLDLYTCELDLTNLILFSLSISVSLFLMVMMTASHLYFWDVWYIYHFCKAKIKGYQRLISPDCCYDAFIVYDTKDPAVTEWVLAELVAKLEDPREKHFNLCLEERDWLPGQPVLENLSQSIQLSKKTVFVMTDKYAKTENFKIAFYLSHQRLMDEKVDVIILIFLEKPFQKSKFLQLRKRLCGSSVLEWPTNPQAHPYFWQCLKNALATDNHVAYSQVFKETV", "experiment": "HEK293-Blue-hTLR7 cells assay (NF-κB SEAP reporter)", "type": "cell-based", "details": "20 hrs incubation, agonism", "source_text": "A stable HEK293-Blue-hTLR7 cell line was purchased from InvivoGen (Cat. #: hkb-htlr7, San Diego, California, USA). These cells were designed for studying the stimulation of human TLR7 by monitoring the activation of NF-κB. A SEAP (secreted embryonic alkaline phosphatase) reporter gene was placed under the control of the IFN-β minimal promoter fused to five NF-κB and AP-1-binding sites. The SEAP was induced by activating NF-κB and AP-1 via stimulating HEK-Blue hTLR7 cells with TLR7 ligands. Therefore the reporter expression was regulated by the NF-κB promoter upon stimulation of human TLR7 for 20 hrs. The cell culture supernatant SEAP reporter activity was determined using QUANTI-Blue™ kit (Cat. #: rep-qbl, Invivogen, San Diego, Ca, USA) at a wavelength of 650 nm, a detection medium that turns purple or blue in the presence of alkaline phosphatase.\nHEK293-Blue-hTLR7 cells were incubated at a density of 250,000˜450,000 cells/mL in a volume of 180 μL in a 96-well plate in Dulbecco's Modified Eagle's medium (DMEM) containing 4.5 g/L glucose, 100 U/mL penicillin, 100 μg/mL streptomycin, 100 μg/mL Normocin, 1% (V/V) GlutaMAX™, 10% (V/V) heat-inactivated fetal bovine serum for 24 hrs. Then the HEK293-Blue-hTLR-7 cells were incubated with addition of 20 μL test compound in a serial dilution in the presence of final DMSO at 1% and perform incubation under 37° C. in a CO2 incubator for 20 hrs. Then 20 μL of the supernatant from each well was incubated with 180 μL Quanti-blue substrate solution at 37° C. for 1 hours and the absorbance was read at 620-655 nm using a spectrophotometer. The signalling pathway that TLR7 activation leads to downstream NF-κB activation has been widely accepted, and therefore similar reporter assay was also widely used for evaluating TLR7 agonist (Tsuneyasu Kaisho and Takashi Tanaka, Trends in Immunology, Volume 29, Issue 7, July 2008, […]; Hiroaki Hemmi et al, Nature Immunology 3, 196-200 (2002))."}}, "data": [{"smiles": "CCOCc1nc2c(N)nc(C)c(Sc3ccc(CN4CCN(C)CC4)c(N)c3)c2[nH]1", "note": "[Example 28, 7-[3-amino-4-[(4-methylpiperazin-1-yl)methyl]phenyl]sulfanyl-2-(ethoxymethyl)-6-methyl-1H-imidazo[4,5-c]pyridin-4-amine]", "values": [{"measurement": "EC50", "setting": "human TLR8", "result": 44, "unit": "nM"}, {"measurement": "EC50", "setting": "human TLR7", "result": 10, "unit": "nM"}]}, {"smiles": "CCOCc1nc2c(N)nc(C)c(Sc3c(N)cc(CN4CCN(C)CC4)cc3OC)c2[nH]1", "note": "[Example 29, 7-[2-amino-6-methoxy-4-[(4-methylpiperazin-1-yl)methyl]phenyl]sulfanyl-2-(ethoxymethyl)-6-methyl-1H-imidazo[4,5-c]pyridin-4-amine]", "values": [{"measurement": "EC50", "setting": "human TLR8", "result": 44, "unit": "nM"}, {"measurement": "EC50", "setting": "human TLR7", "result": 6, "unit": "nM"}]}, {"smiles": "CCOCc1nc2c(N)nc(C)c(Sc3ccc(NCCN(C)C)nc3)c2[nH]1", "note": "[Example 30, N-[5-[[4-amino-2-(ethoxymethyl)-6-methyl-1H-imidazo[4,5-c]pyridin-7-yl]sulfanyl]-2-pyridyl]-N′,N′-dimethyl-ethane-1,2-diamine]", "values": [{"measurement": "EC50", "setting": "human TLR8", "result": 11, "unit": "nM"}, {"measurement": "EC50", "setting": "human TLR7", "result": 13, "unit": "nM"}]}, {"smiles": "CCOCc1nc2c(N)nc(C)c(Sc3ccc(CCN(C)C)cc3)c2[nH]1", "note": "[Example 31, 7-[4-[2-(dimethylamino)ethyl]phenyl]sulfanyl-2-(ethoxymethyl)-6-methyl-1H-imidazo[4,5-c]pyridin-4-amine]", "values": [{"measurement": "EC50", "setting": "human TLR8", "result": 5, "unit": "nM"}, {"measurement": "EC50", "setting": "human TLR7", "result": 18, "unit": "nM"}]}, {"smiles": "CCOCc1nc2c(N)nc(C)c(Sc3cc4c(cc3O)CN(C)CC4)c2[nH]1", "note": "[Example 32, 6-[[4-amino-2-(ethoxymethyl)-6-methyl-1H-imidazo[4,5-c]pyridin-7-yl]sulfanyl]-2-methyl-3,4-dihydro-1H-isoquinolin-7-ol]", "values": [{"measurement": "EC50", "setting": "human TLR8", "result": 54, "unit": "nM"}, {"measurement": "EC50", "setting": "human TLR7", "result": 21, "unit": "nM"}]}, {"smiles": "CCCCc1nc2c(N)nnc(N(C)Cc3ccc(CN(C)C)cc3)c2n1C", "note": "[SAN-43, reference compound]", "values": [{"measurement": "EC50", "setting": "human TLR8", "result": 37, "unit": "nM"}, {"measurement": "HEK293-hTLR8 EC50", "setting": "human TLR8", "result": "did not show comparable TLR7 and TLR8 activities"}, {"measurement": "EC50", "setting": "human TLR7", "result": 310, "unit": "nM"}, {"measurement": "HEK293-hTLR7 EC50", "setting": "human TLR7", "result": "did not show comparable TLR7 and TLR8 activities"}]}]}
